Test results reported in PubChem BioAssay (NCI).
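Five compound concentrations were applied to cells in 96-well plates for 48 hours; endpoints were derived by simple linear interpolation of the resulting dose-response curve. Definition used: TGI = concentration required for complete inhibition of growth.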

Tests used:
Test in all cases: NCI tumour cell line growth inhibition, 48 h
[1] = tested on: MALME-3M melanoma
[2] = tested on: U251 CNS
[3] = tested on: MDA-MB-435
[4] = tested on: SW-620 colon
[5] = tested on: CCRF-CEM leukemia
[6] = tested on: KM12 colon
[7] = tested on: OVCAR-5 ovarian
[8] = tested on: SF-295 CNS
[9] = tested on: MDA-MB-231 breast
[10] = tested on: OVCAR-4 ovarian

| SMILES | TGI [1] [µM] | TGI [2] [µM] | TGI [3] [µM] | TGI [4] [µM] | TGI [5] [µM] | TGI [6] [µM] | TGI [7] [µM] | TGI [8] [µM] | TGI [9] [µM] | TGI [10] [µM] |
| --- | --- | --- | --- | --- | --- | --- | --- | --- | --- | --- |
| CCN(CC)C1Oc2cc3c(cc2C(c2cccc(OC)c2OC)C1C)OCO3 (stereo not given) | 33.5 | 32 | 45.6 | 77 | 8.48 | 29.5 | 48.6 | 16.3 | 35.4 | – |
| COC(=O)C(Cc1c[nH]c2ccccc12)N=C1Nc2ccncc2S(=O)(=O)N1c1cccc(OC(C)C)c1 (stereo not given) | > 100 | > 100 | > 100 | > 100 | > 100 | > 100 | > 100 | > 100 | > 100 | > 100 |
| CC(C)(C)NC(=O)CCC1C(C(=O)NC(C)(C)C)C2(Cl)C(Cl)=C(Cl)C1(Cl)C2(Cl)Cl (stereo not given) | > 100 | > 100 | > 100 | > 100 | > 100 | > 100 | > 100 | > 100 | > 100 | > 100 |
| COc1cc(Nc2nc3cc(C(F)(F)F)ccc3n3cccc23)cc(OC)c1OC | > 100 | > 100 | > 100 | > 100 | > 100 | – | > 100 | > 100 | – | – |
| CC(=O)O[C@H]1CC[C@@]2(C)C(=CC[C@@H]3[C@@H]2CC[C@]2(C)c4nc(Cl)ccc4C[C@@H]32)C1 | > 100 | > 100 | > 100 | > 100 | 58.4 | > 100 | > 100 | 83.3 | > 100 | > 100 |
| COc1ccc(CNc2cc(=O)n(C)c(=O)[nH]2)cc1 | > 100 | > 100 | > 100 | > 100 | > 100 | > 100 | > 100 | > 100 | > 100 | > 100 |
| O=NN(CCF)C(=O)NC1CCSCC1 | > 100 | > 100 | – | > 100 | > 100 | > 100 | > 100 | > 100 | – | > 100 |
| CN(C)CCc1c2c(nc3ccccc13)C(=O)c1cccnc1C2=O | 1.79 | 4.3 | 1.15 | 1.91 | 4.85 | 1.38 | 3.44 | 1.03 | 26.5 | 2.79 |
| NNc1nnc(-c2nnc(NN)o2)o1 | > 10 | > 10 | > 10 | > 10 | > 10 | > 10 | > 10 | > 10 | > 10 | > 10 |
| CNNC(=NS(=O)(=O)c1cc(C#N)c(NNC)cc1S)NNC | > 10 | > 10 | – | > 10 | > 10 | > 10 | > 10 | > 10 | – | > 10 |
| Clc1ccc(C2ON=C(c3ccccc3)N2C23CC4CC(CC(C4)C2)C3)cc1 (stereo not given) | > 10 | > 10 | > 10 | > 10 | > 10 | > 10 | > 10 | > 10 | > 10 | > 10 |
| COc1cccc(C(=O)C#Cc2cnc(OC)nc2OC)c1 | 3.23 | 7.27 | 5.24 | 1.94 | – | 18.7 | 8.05 | 31.7 | 7.42 | 6.61 |
| Cc1cnc2c(c1C)C(=O)c1ccccc1C2=O | – | > 100 | 39.1 | > 100 | > 100 | > 100 | > 100 | > 100 | 93.9 | 59.3 |
| O=C(c1ccccc1)c1c(CC(O)c2ccncc2)n(C(=O)c2ccccc2)c2ccccc12 (stereo not given) | 34 | 31.6 | – | 39.2 | 61.9 | 37.8 | 34.5 | 26 | – | 39.7 |
| CN1CCN(c2ccc3c(c2)NCC(=O)N3)CC1 | > 100 | > 100 | > 100 | > 100 | > 100 | > 100 | > 100 | > 100 | > 100 | > 100 |
| C=C1CC[C@@H](C)[C@](C)(CCc2ccoc2)C/C=C\C=C/1C(=O)O | > 100 | > 100 | > 100 | > 100 | 90.3 | > 100 | > 100 | > 100 | > 100 | > 100 |
| CN(C)CCNC(=O)c1cccc2c(NC(CCC(N)=O)C(=O)O)c3ccccc3nc12 (stereo not given) | 19.5 | > 100 | 23.1 | > 100 | > 100 | 59.1 | > 100 | 25.5 | 24.7 | 60.6 |
| C[N+](C)(C)c1ncnc2c1ncn2C1CCCO1 (stereo not given) | > 100 | > 100 | > 100 | > 100 | > 100 | > 100 | > 100 | > 100 | – | > 100 |
| COc1ccc2c3c1O[C@H](c1ccc(O)cc1)[C@H]3[N+](C)(C)CC2 | > 100 | > 100 | > 100 | > 100 | > 100 | > 100 | > 100 | > 100 | > 100 | > 100 |
| COC(=O)C(=O)Cc1nc2ccccc2o1 | > 100 | > 100 | – | – | > 100 | > 100 | > 100 | – | – | > 100 |
| OC(c1cccnc1Cl)c1nc2ccccc2c2ccnc(Cl)c12 (stereo not given) | 78.2 | > 100 | 4.89 | > 100 | – | > 100 | > 100 | 9.75 | > 100 | > 100 |
| Cn1c(=O)n2n(c1=O)C(C)(C13CC4CC(CC(C4)C1)C3)C13CC4CC(CC1C4)CC23 (stereo not given) | – | > 100 | > 100 | > 100 | > 100 | > 100 | > 100 | > 100 | > 100 | – |
